Results from patent US20150307614A1, “Enhanced immunological responses” (Duke University, priority 2009, published 2015).

Tests used:
[1] = system: OVA-specific T-cells; assay: Antigen-specific vaccination after TMZ-induced lymphopenia in mice, with or without anti-IL-2Rα; format: in vivo; settings: TMZ pre-treatment
Procedure: (§1) It also induces transient, Grade 3 lymphopenia (<500 cells/uL) in 70% of patients with GBM after the first cycle (150-200 mg/m2/5 d) with nadirs occurring 14-21 days after treatment (n=10). TMZ treatment also leads to an increase in the proportion of TRegs in the peripheral blood (unpublished). Despite this, we have been able to induce and maintain potent EGFRvIII-specific humoral and cellular immune responses in patients with GBM receiving TMZ. Thus, we evaluated TMZ for its capacity to induce homeostatic proliferation and to enhance antigen-specific immune responses in a murine model. Markedly elevated levels of antigen-specific T-cells could be achieved and maintained in mice receiving antigen-specific vaccination after TMZ-induced lymphopenia when compared to normal hosts.

[2] = TMZ-induced lymphopenia in patients with GBM; format: in vivo, human; settings: after the first cycle (150-200 mg/m2/5 d), n=10
Procedure: as §1

[3] = system: human TRegs; assay: Daclizumab on human TRegs in vitro; format: cell-based
[4] = system: newly-diagnosed, EGFRvIII+ GBM
Procedure: In patients with newly-diagnosed, EGFRvIII+ GBM, after resection and radiation/TMZ, patients received CDX-110 vaccinations biweekly×3, then monthly until tumor progression in combination with TMZ (200 mg/m^2×5/28 days). […] The others received saline in a double-blinded fashion.

[5] = after expansion post vaccination

Compound | OVA-specific T-cells, frequency of circulating CD8+ T-cells ([1]; 4 weeks post-vaccination) [%] | OVA-specific T-cells, absolute count after vaccination [1, 5] [cells/uL] | OVA-specific T-cells, frequency of circulating CD8+ T-cells after vaccination [1, 5] [%] | OVA-specific T-cells, absolute count, start of expansion ([1]; starting count) [cells/uL blood] | OVA-specific T-cells, frequency of circulating CD8+ T-cells, start of expansion ([1]; starting frequency) [%] | patients with transient Grade 3 lymphopenia (<500 cells/uL) [2] [%] | time of lymphopenia nadirs after treatment [2] [days] | effector T-cell function ([3]; in vitro) | human TRegs ([3]; in vitro) | CD4+ T-cell responses ([3]; preliminary in vitro studies with human TRegs in the presence of daclizumab) | OS (overall survival) ([4]; both arms) | TTP (time to progression) ([4]; both arms) | overall CD8+ or CD4+ T-cell counts ([4]; daclizumab 1 mg/Kg×1, preliminary analysis n=4) | EGFRvIII-specific immune responses ([4]; daclizumab arm, preliminary analysis n=4, p=0.01 t-test) | titer of cytotoxic EGFRvIII-specific IgG1 isotype antibodies ([4]; human, in vivo) | Treg (CD4+CD25+CD45RO+FOXP3+) numbers, change from baseline ([4]; reduction, daclizumab 1 mg/Kg×1 at first vaccine, preliminary analysis n=4, p=0.011 t-test) [%]
Cn1nnc2c(C(N)=O)ncn2c1=O [TMZ, temozolomide] | 21.18 | 42.61 | 10.64 | 3.41 | 0.40 | 70 | 14 to 21 |  |  |  |  |  |  |  |  | 
daclizumab: commercially available humanized IL-2Rα-specific antibody |  |  |  |  |  |  |  | increase | reduction | enhancement | has not been reached | has not been reached | without reducing | enhanced | enhanced | 82.4±7.1
